1 molecule from US20130005802A1, “TREATMENT OF WNT/FRIZZLED-RELATED DISEASES” (priority 2009, published 2013) can be followed below.

By Cmax is commonly meant the maximum level reached in the sampled fluid or tissue. As a reminder, the Tmax is the time from dosing to the highest level. A word on the half-life: it is the time needed for the level to fall by half in the phase considered. Read a high half-life as slow loss.

One data set concerns the target Frizzled1-GFP (Rattus norvegicus, UniProt Q08463). Kind of data set: Co-localization of internalized Frizzled1-GFP with β2-adrenergic receptor-RFP or Transferrin. Format: cell-based. Here is the method: To remove remaining surface bound Tf, the cells were exposed to unlabeled transferrin (10 mg/mL) for 2 min at room temperature. The cells were then fixed with 4% paraformaldehye, and imaged with a LSM510 confocal microscope (Zeiss).
Many classes of membrane receptors internalize in clathrin coated pits. In particular, β2-adrenergic receptors are prototypical for clathrin-dependent internalization of G protein-coupled receptors (Barak, L. S., et al. Mol Pharmacol 1997, 51, 177-184; Goodman, O. B., Jr., et al. Nature 1996, 383, 447-450, both are incorporated herein by reference in their entireties), and Transferrin is a well-documented standard for clathrin-mediated internalization in general (Mellman, I. Annu Rev Cell Dev Biol 1996, 12, 575-625, incorporated herein by reference). It was examined whether internalized Frizzled1-GFP co-localizes with either β2-adrenergic receptor-RFP or Transferrin in intracellular vesicles. FIG. 6A-6C show confocal images of unstimulated U2OS cells expressing both β2-adrenergic receptor-RFP (β2AR-RFP, FIG. 6A) and Frizzled1 receptors (Fzd1-GFP, FIG. 6B) prior to activation.
The merged image is presented in (FIG. 6L), wherein arrowheads indicate co-localized vesicles.

In a further data set the test system is CRC explants. Kind of data set: MTT assay, CRC explants. Format: cell-based. The following applies: 72 hr. Here is the method: AsPC-1 tumor cells were cultured with T cells at a 1:5 ratio for 7 days in the presence of MEDI-565 or Cont BiTE (100 ng/mL). On day 7, floating cells were discarded and only adherent AsPC-1 cells were harvested with 0.05% trypsin/EDTA and washed with PBS three times. 1×10^4 AsPC-1 tumor cells were added to each well of 96 well flat bottom plates in 200 μL of complete RPMI1640 medium. The cells were allowed to adhere to the plates overnight at 37° C. (day 0) and were further incubated for 1, 2, 4 or 7 days. 20 μL of 10×MTT (3-[4,5-dimethylthiazol-2-yl]-2,5-diphenyl-tetrazolium bromide, 5 mg/mL) solution was added to each well, and incubated at 37° C. for 2 hr. The adherent cells were lysed with 150 μL of dimethyl sulfoxide (DMSO) and the optical density (OD) at 550 nm was measured.
The cells were allowed to adhere to the plates overnight at 37° C. (day 0). […] Then 20 μL of 10×MTT solution was added to each well and incubated at 37° C. for 2 hr. The adherent cells were lysed with 150 μL of DMSO, and then optical density (OD) at 562 nm was measured. DMSO or culture medium was used as a control.
An MTT assay was performed after 72 hr incubation. After cell lysis with DMSO, the optical density (OD) at 562 nm was measured.
In general terms: Tetrazolium assays rely on reduction of a dye to a coloured formazan, in cell work by metabolically active cells.

Another data set in a line: in vivo. The note with it: NOD/SCID, mouse, po, 200 mg/kg. Here is the method:
Blood samples were obtained from vena cava following euthanasia by ketamin injection at predose and at 0.25, 0.5, 0.75, 1, 1.5, 4, 8, 12, 24 hr after drug administration. Blood samples were put into eppendorf tubes containing 10 μL of heparin (1000 U/mL), centrifuged at 1,200 g for 10 min. Plasma were collected and frozen at −20° C. until HPLC analysis.
The Calibration curve was linear from 0.2 ng/mL (lower limit of quantitation, LLOQ) to 300 ng/mL.
Blood samples were obtained from vena cava at predose and at 0.25, 0.5, 0.75, 1, 1.5, 4, 8, 12, 24 hr after drug administration. Plasma was collected by the centrifugation (1,200 g, 10 min) of blood with heparin (100 U/mL).

The subject of a further data set is Dvl-2. Kind of data set: Immunohistochemistry of Dvl-2 in treated tumors. It is filed as in vivo, NOD/SCID mice. The note with it: 200 mg/kg, 2 or 3 weeks. Here is the method: Paraffin-embedded specimens were cut into 4 μm-thick of sequential sections. After dewaxing in xylene and rehydrating stepwise in ethanol, sections were subjected to heat-induced antigen retrieval. Endogenous peroxidase activity was blocked with 3% H2O2, and non-specific binding was blocked with non-immune horse sera. Sections were then incubated with primary antibodies overnight at 4C. Anti-β-catenin (sc-65483, Santa Cruz Biotechnology, Inc., Santa Cruz, Calif.) and anti-Dvl-2 (sc-8026, Santa Cruz Biotechnology, Inc., Santa Cruz, Calif.) monoclonal antibodies were used at (1:50) dilution. After rinsing the sections were incubated with the biotinylated secondary antibody (1:200 dilution; Dakopatts, Copenhagen, Denmark) for 30 min at room temperature and then with the avidin-biotin peroxidase complex from the Vector Elite ABC kit (Vector Laboratories, Burlingame, Calif.) according to the manufacturer's instructions. Visualization was achieved using 3,3′-diaminobenzidine tetrahydrochloride and H2O2. Specimens were counterstained with hematoxylin.
NOD/SCID mice were implanted with colorectal cancer explants or cell lines. […] Tumors were excised and fixed with 10% neutralized, buffered formalin. Paraffin-embedded specimens were cut into 4 μm-thick of sequential sections. After dewaxing and rehydration, heat-induced antigen retrieval was performed. […]

A further data set relates to HCT116 tumors. In words: In vivo anti-tumor effect, HCT116 tumors. Details: species or system NOD/SCID mice. Here is the method: HCT116 colon cancer cells were harvested from flasks with 0.05% Trypsin/EDTA, washed with PBS, and resuspended with Hanks buffered solution at 5×10^6 cells/100 μL concentration. CRC explants (CRC039) cultured in vitro were harvested with the same procedure, and mixed with equal volume of Matrigel to make 1×10^6 cells/100 μL concentration. A hundred μL of cell suspension was inoculated to the flank of NOD/SCID mice 4 days before the start of treatment. […] Tumor size was measured 3 times a week until mice were sacrificed.
HCT116 colon cancer cells were harvested from flasks with 0.05% Trypsin/EDTA and resuspended with Hanks buffered solution at 5×10^6 cells/100 μL concentration. CRC explants (CRC039) cultured in vitro were harvested with the same procedure and mixed with equal volume of Matrigel to make 1×10^6 cells/100 μL concentration. The cell suspension (100 μL) was inoculated into the flank of NOD/SCID mice 4 days before the start of treatment. […] Initially, 2 weeks of treatment was planned for both HCT116 and CRC039. However, treatment was extended to 3 weeks for CRC039 cells because the […] grew much slower than the HCT116 cell line. Tumor size was measured 3 times a week until mice were euthanized.

Sequence of Frizzled1-GFP (Q08463 69-641): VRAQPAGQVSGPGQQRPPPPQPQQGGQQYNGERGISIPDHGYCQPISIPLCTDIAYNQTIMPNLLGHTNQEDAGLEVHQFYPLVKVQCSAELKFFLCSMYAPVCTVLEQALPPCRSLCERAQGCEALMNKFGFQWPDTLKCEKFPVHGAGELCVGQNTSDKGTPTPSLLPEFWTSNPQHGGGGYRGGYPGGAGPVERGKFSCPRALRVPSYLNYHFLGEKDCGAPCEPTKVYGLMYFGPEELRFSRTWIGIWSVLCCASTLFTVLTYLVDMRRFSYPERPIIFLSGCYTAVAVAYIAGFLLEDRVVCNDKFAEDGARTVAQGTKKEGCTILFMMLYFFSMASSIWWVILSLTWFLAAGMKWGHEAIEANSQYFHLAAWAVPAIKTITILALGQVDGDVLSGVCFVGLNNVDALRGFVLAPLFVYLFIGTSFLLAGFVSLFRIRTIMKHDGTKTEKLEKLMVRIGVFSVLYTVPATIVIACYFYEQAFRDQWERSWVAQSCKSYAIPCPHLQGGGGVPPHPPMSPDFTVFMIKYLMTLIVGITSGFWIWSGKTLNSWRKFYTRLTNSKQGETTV

For the molecule `O=C(Nc1ccc([N+](=O)[O-])cc1Cl)c1cc(Cl)ccc1O` [niclosamide], the “co-localization of Fzd1-GFP with β2AR-RFP” value at Frizzled1-GFP ([…] niclosamide and 0.1 μM isoproterenol, 2 hr or 6 hr) was “multiple overlapping intracellular distributions”. The “co-localization of internalized Transferrin with internalized Frizzled1” value at Frizzled1-GFP ([…] niclosamide, Transferrin 100 μg/mL, 2 hr) is “significant co-localization”. Also, in the data set with CRC explants (5 μM), the “killing of CRC020 explant cells” value was “killed significantly”. Moreover, in the data set with CRC explants (0.4, 2, 10 μM), the “cytotoxicity (MTT, OD 562 nm) in 8 CRC explants” value is on record as “cytotoxic effects”. Also, in “in vivo”, the Cmax turned out to be 894 ng/mL, the “Elimination rate (z-lambda)” value stood at 0.217 h⁻¹, the Tmax was 0.25 h and the concentration at 1.5 hr was 77.6 ng/mL. Moreover, in “in vivo”, the half-life was 3.2 h. Besides, the “cytoplasmic expression of Dvl-2 in tumors vs control” value in the data set with Dvl-2 was “decreased levels”. Moreover, in the data set on HCT116 tumors (200 mg/kg gavage, after two weeks), the “tumor volume vs control” value was “less than half a volume”. Further, in the data set with HCT116 tumors (10, 100 or 200 mg/kg gavage, 6 days per week, 2 weeks), the tumor growth result is “significantly inhibited the growth”.
